Converted amounts (≈) assume the structure as drawn.
Columns and labels:
[1] = type: physicochemical; conditions: 24 h
[2] = Dissolution in fasted-state simulated intestinal fluid (FaSSIF); type: physicochemical
Method: 10 mg of accurately weighted samples of Type A and Type F, and 50 mg of HPMCAS-20-SDD (ASD with 20% drug loading made via spray-drying dispersion, see Example 3) were each added to 20 mL of fasted-state simulated intestinal fluid (FaSSIF) solution (pH 6.5) in a 50-mL centrifuge tube. The tube was placed in a shaker and kept shaking with 100 rpm at 37° C. At different time intervals (10, 30, 60, 120, 240 min), 350 μL suspension was removed and centrifuged at 13,000 rpm for 3 minutes to give a clear solution that was then analyzed by HPLC.
Samples of HPMCAS-20-SDD, HPMCAS-40-SDD, HPMCAS-60-SDD, PVPVA-20-HME were tested for dissolution according to the protocols of Example 5.

[3] = Glass transition temperature by DSC; type: physicochemical; conditions: DSC 0 to 180° C. at 10° C./min
Method: Accurately weighted samples (containing 5 mg of Compound I. see Table 3) were prepared according to the protocols of Examples 3 and 4, except varying the polymer and the drug amount. The examples were each placed in a DSC pan (TA Instruments), which was then sealed and placed in a TA Instruments Q2000. The pan was heated at 105° C. for 3 minutes and then rapidly cooled to 0° C. for 1 minute. The DSC analysis was carried out between 0 to 180° C. at a rate of 10° C./min.

[4] = Bioavailability of Type F crystalline form; conditions: in vivo
Text: Type F is a stable crystalline form and is useful as an active pharmaceutical ingredient (API) for a pharmaceutical formulation. However, its dissolution is slow and bioavailability is low (20%).

SMILES	solubility [1]	dissolution in FaSSIF (comparison) ([2]; FaSSIF pH 6.5, 37° C., 100 rpm, 10-240 min)	Tg [3]	bioavailability [4]	dissolution ([2]; general statement on the crystalline form)
C=CC(=O)N1CCC(c2ccc(C(N)=O)c(-c3ccc(Oc4ccccc4)cc3)n2)CC1 [Type A, 6-(1-acryloylpiperidin-4-yl)-2-(4-phenoxyphenyl)nicotinamide]	13 µg/mL (≈ 30.4 µM)	better than Type F's	69.4 °C		
C=CC(=O)N1CCC(c2ccc(C(N)=O)c(-c3ccc(Oc4ccccc4)cc3)n2)CC1 [Type F, 6-(1-acryloylpiperidin-4-yl)-2-(4-phenoxyphenyl)nicotinamide]	4 µg/mL (≈ 9.36 µM)			20%	slow

From patent US12178808B2, “Amorphous solid dispersion comprising 6-(1-acryloylpiperidin-4-yl)-2-(4-phenoxyphenyl)nicotinamide” (BEIJING INNOCARE PHARMA TECH CO., LTD., priority 2018, dated 2024)
